Entries after “also recorded” stand apart in the source; their conditions may differ. Marks after values point to notes of the source that are not given here.
Legend:
[1] = molecular target: T1, soybean lipoxygenase (Glycine max, UniProt P08170); assay: Soybean lipoxygenase inhibition study; format: biochemical; conditions: sodium linoleate 0.1 mM; for LOX % Inhibition at 100 µM / inhibition at 100 µM: compound 100 µM; for inhibition at 100 µM: read-out: LOX % Inhibition at 100 µM
T1 construct: purchased Sigma Chemical, Co
T1 sequence (P08170 1-839): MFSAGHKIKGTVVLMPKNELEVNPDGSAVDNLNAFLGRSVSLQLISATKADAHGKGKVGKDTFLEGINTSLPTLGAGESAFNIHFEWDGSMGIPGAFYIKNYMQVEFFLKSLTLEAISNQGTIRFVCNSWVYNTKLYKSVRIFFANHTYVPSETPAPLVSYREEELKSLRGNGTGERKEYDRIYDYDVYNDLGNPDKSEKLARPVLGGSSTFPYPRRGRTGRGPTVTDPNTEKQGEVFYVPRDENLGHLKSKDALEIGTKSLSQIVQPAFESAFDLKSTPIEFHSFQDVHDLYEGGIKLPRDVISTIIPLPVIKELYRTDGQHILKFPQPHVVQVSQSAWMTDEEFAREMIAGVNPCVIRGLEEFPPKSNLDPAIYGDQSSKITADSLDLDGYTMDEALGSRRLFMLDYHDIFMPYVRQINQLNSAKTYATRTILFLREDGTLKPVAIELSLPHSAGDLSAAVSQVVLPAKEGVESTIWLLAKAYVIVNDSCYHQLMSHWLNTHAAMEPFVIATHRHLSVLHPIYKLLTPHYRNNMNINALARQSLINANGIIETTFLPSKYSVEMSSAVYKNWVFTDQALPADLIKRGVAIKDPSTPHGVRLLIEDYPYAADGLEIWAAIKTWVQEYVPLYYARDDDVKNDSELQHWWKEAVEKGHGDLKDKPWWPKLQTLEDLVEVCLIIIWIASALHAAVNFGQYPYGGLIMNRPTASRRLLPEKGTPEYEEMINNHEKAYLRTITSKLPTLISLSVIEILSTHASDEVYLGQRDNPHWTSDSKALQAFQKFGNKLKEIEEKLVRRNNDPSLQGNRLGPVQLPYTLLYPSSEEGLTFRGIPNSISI
Protocol: Lipoxygenase (LOX) is the key enzyme implicated in membrane lipid peroxidation by forming hydroperoxides, thus it is considered a target for inflammatory diseases. […] For the in vitro study, soybean lipoxygenase was used, based on the homology to mammalian lipoxygenase. […] A stock solution (1% DMSO in the appropriate buffer with the tested compound diluted under sonication) was prepared for the in vitro assays from which several dilutions were made with the appropriate buffer. […] The stock solutions of the compounds were incubated with sodium linoleate (0.1 mM) and 0.2 mL of soybean lipoxygenase solution (1/9 × 10^-4 w/v in saline) at room temperature. In vitro test was performed as previously published.

[2] = tested on: acetic acid-induced writhing; assay: Anti-nociception writhing test (acetic acid); format: in vivo, Fisher 344 rats; conditions: 0.0057 mmol/kg body weight i.p., 0.6% acetic acid after 30 min
Description: The acetic acid-induced writhing test is a quick, simple and reproducible method, despite the fact that it lacks specialization. […] The animals (Fisher 344 rats), were housed under standard conditions, and received a diet of commercial food pellets and water ad libitum during the maintenance, but were entirely fasted during the experiment period. Both sexes were used, while pregnant females were excluded. Each group was composed of 6–15 animals. Our studies were in accordance with recognized guidelines on animal experimentation (guidelines for the care and use of laboratory animals published by the Greek Government 160/1991, based on EU regulations 86/609). Rats were kept in the Centre of the School of Veterinary Medicine (EL54 BIO42), Aristotle University of Thessaloniki, which is registered by the official state veterinary authorities (presidential degree 56/2013, in harmony with the European Directive 2010/63/EEC). The experimental protocols were approved by the Animal Ethics Committee of the Prefecture of Central Macedonia. For the study of the analgesic activity of the tested compounds, pain is provoked with acetic acid. Animals were divided in three five-membered groups, according to our reported method. After treatment with the tested compounds (0.0057 mmol/kg body weight; intraperitoneally) in the first group, the second group was used as a positive control (aspirin; 0.0057 mmol/kg body weight i.p.) and the third group served as the control in which saline was administered (negative control). After 30 min, 0.6% acetic acid (1 mL/kg body weight) was injected i.p. The number of writhes was recorded for each animal every 5 min during a subsequent 30 min period (Table 6).

[3] = tested on: adjuvant-induced disease (AID); assay: Adjuvant-induced disease (AID); format: in vivo, Fisher 344 rats; conditions: AID rats
Protocol: Adjuvant-induced disease (AID) is a good experimental model for rheumatoid arthritis, and is often used in testing agents for anti-inflammatory activity. The compound was administered intraperitoneally on the 1st day, i.e., the day of the administration of Freund’s adjuvant (FA), and once every other day for the following 24 days. Adjuvant arthritis was developed about 14 days post-FA administration. […] The effect of the tested compound on inflammation is shown in Table 7 and the time course of adjuvant arthritis development expressed as arthritic score is shown in Figure 2. In the same experimental model, Indomethacin (IMA) was used as a reference compound.
The animals (Fisher 344 rats), were housed under standard conditions, and received a diet of commercial food pellets and water ad libitum during the maintenance, but were entirely fasted during the experiment period. Both sexes were used, while pregnant females were excluded. Each group was composed of 6–15 animals. Our studies were in accordance with recognized guidelines on animal experimentation (guidelines for the care and use of laboratory animals published by the Greek Government 160/1991, based on EU regulations 86/609). Rats were kept in the Centre of the School of Veterinary Medicine (EL54 BIO42), Aristotle University of Thessaloniki, which is registered by the official state veterinary authorities (presidential degree 56/2013, in harmony with the European Directive 2010/63/EEC). The experimental protocols were approved by the Animal Ethics Committee of the Prefecture of Central Macedonia.
Rats were divided into four groups (five-membered groups of animals were used): groups one, two and three were injected intradermally with 0.1 mL Freund’s adjuvant (FA) into the base of the tails of the animals; group three was the FA control rats; group four was injected with saline, used as an absolute control. Compound 2d (group 1) and indomethacin (group 2) were injected i.p. once every other day for the following 24 days in a dose of 0.00057 mmol/mL/kg body weight (Table 7). Adjuvant arthritis was developed circa 14 days post-FA administration. Arthritic score was measured every 2 days from the commencement (14th day) day. Arthritic score was assessed on the 24th day. For quantification of arthritis (arthritic score); a single point was assigned for each wrist or ankle area and an additional point was given for each involved phalangeal joint, up to a maximum of five points per extremity.
On the 24th day and at least 12 h after the last injection, animals were administered zoxazolamine i.p. […], as an aqueous suspension with a few drops of Tween 80, and the duration of the paralysis were assessed (Table 7) (Figure 2). The experiment was conducted in duplicate.

[4] = 0.00057 mmol/mL/kg i.p. every other day for 24 days

1-(5-(4-((4-bromobenzyl)oxy)phenyl)-3-(thiophen-2-yl)-1H-pyrazol-1-yl)ethan-1-one [Compound 2c]
LOX % Inhibition at 100 µM [1]: 42%

5-(4-((4-bromobenzyl)oxy)phenyl)-3-(4-chlorophenyl)-4,5-dihydro-1H-pyrazole [Compound 2e]
Writhing Inhibition (%) [2]: 66.1 * % | LOX % Inhibition at 100 µM [1]: 16%

c1ccc(C2=NNC(c3cccc4ccccc34)C2)cc1 (stereo not drawn) [Compound 2a, 5-(naphthalen-1-yl)-3-phenyl-4,5-dihydro-1H-pyrazole]
inhibition at 100 µM [1]: 35%

Clc1ccc(C2=NNC(c3ccc4[nH]ccc4c3)C2)cc1 (stereo not drawn) [Compound 2b, 5-(3-(4-chlorophenyl)-4,5-dihydro-1H-pyrazol-5-yl)-1H-indole]
inhibition at 100 µM [1]: 17%

Brc1ccc(COc2ccc(C3CC(c4ccccc4)=NN3)cc2)cc1 (stereo not drawn) [Compound 2d, 5-(4-((4-bromobenzyl)oxy)phenyl)-3-phenyl-4,5-dihydro-1H-pyrazole]
Writhing Inhibition (%) [2]: 54.2 * % | inhibition at 100 µM [1]: 13% | Percent change in body weight (g ± SD) [3, 4]: 6 ± 0.3 g | Percent change in liver weight (g ± SD) [3, 4]: 7 ± 0.6 g | Zoxazolamine paralysis (minutes ± SD) ([3]; 24th day, zoxazolamine i.p.): 227 ± 17 min | arthritis development / arthritic score ([3]; i.p. once every other day for 24 days, versus AID rat controls): either did not develop or developed very mild arthritis; also recorded: significantly reduced

CC(=O)n1nc(-c2ccccc2)cc1-c1ccc2[nH]ccc2c1 [Compound 2f, 1-(5-(1H-indol-5-yl)-3-phenyl-1H-pyrazol-1-yl)ethan-1-one]
inhibition at 100 µM [1]: 3%

CC(=O)n1nc(-c2ccc(Cl)cc2)cc1-c1cccc2ccccc12 [Compound 2g, 1-(3-(4-chlorophenyl)-5-(naphthalen-1-yl)-1H-pyrazol-1-yl)ethan-1-one]
inhibition at 100 µM [1]: 60% | IC50 ([1]; soybean lipoxygenase, read-out: LOX IC50): 80 µM

CC(=O)n1nc(-c2ccccc2)cc1-c1cccc(Oc2ccccc2)c1 [Compound 2h, 1-(5-(3-phenoxyphenyl)-3-phenyl-1H-pyrazol-1-yl)ethan-1-one]
inhibition at 100 µM [1]: 26%

Source: article PMC8201324, “Pyrazoles and Pyrazolines as Anti-Inflammatory Agents” (Molecules, 2021)
